Measurements: PubChem BioAssay AID488801 (NMMLSC, 2010)
Activity calls are given as the source filed them.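 How the source made its calls: active means EC50 at or below 33 microM; inactive means the rest.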

Molecular target: Ammonium transporter MEP2 (Saccharomyces cerevisiae (strain ATCC 204508 / S288c)) (UniProt P41948)
Test: MEP2-GFP expression modulation in yeast, dose response, flow cytometry, KU SAR set, S. cerevisiae (AID 488801)
Details: flow cytometry MCF, 3 h

Ammonium transporter MEP2 (Saccharomyces cerevisiae (strain ATCC 204508 / S288c)), sequence (P41948 whole entry, looked up): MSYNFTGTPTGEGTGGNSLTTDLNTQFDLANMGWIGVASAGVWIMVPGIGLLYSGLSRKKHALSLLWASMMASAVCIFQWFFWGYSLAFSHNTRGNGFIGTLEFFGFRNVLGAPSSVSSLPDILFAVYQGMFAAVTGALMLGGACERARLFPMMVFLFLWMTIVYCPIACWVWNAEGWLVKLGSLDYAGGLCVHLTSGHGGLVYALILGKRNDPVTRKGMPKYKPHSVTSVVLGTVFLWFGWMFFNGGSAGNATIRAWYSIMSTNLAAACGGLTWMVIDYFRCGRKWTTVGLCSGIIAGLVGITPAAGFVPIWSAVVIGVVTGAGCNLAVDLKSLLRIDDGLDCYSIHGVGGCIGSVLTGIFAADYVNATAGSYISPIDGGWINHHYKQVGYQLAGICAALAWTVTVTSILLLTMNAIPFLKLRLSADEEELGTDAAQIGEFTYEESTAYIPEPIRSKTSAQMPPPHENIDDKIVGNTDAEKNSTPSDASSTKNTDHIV

## O=C(Oc1ccnc2cc(Cl)ccc12)N1CCCCCC1
  EC50: 3.97 µM

## CCN(CC)C(=O)Oc1ccnc2cc(Cl)ccc12
  EC50: inactive

## CNc1nc(N)c([N+](=O)[O-])c(Nc2cccc(F)c2)n1
  EC50: 15.8 µM

## CNc1nc(N)c([N+](=O)[O-])c(Nc2cccc(Cl)c2)n1
  EC50: 2.72 µM

## O=C(Oc1c(Cl)cc(Cl)c2cccnc12)c1ccco1
  EC50: inactive

## Cc1ccc(/C=C2/C(=O)ON=C2c2ccccc2)o1
  EC50: inactive

## Nc1cc(Oc2cccc(Cl)c2)nc(NCc2ccccc2)n1
  EC50: inactive

## O=C(OCC(=O)N1CCN(C(=O)c2ccco2)CC1)c1cc(-c2cccc(Br)c2)nc2ccccc12
  EC50: inactive

## Nc1cc(Nc2cccc(F)c2)nc(NCc2ccccc2)n1
  EC50: inactive

## COc1ccc([N+](=O)[O-])c(S(=O)(=O)c2ccccc2)n1
  EC50: inactive

## O=C(Nc1nc(-c2ccccn2)cs1)c1cc2ccccc2o1
  EC50: inactive

## C/C(=N\NC(=O)c1cccc(Br)c1)c1ccccn1
  EC50: inactive

## CN1CCN(C(c2ccc(C(F)(F)F)cc2)c2ccc3cccnc3c2O)CC1 (stereo unspecified)
  EC50: inactive

## C/C(=N\NC(=O)c1ccc(C(C)(C)C)cc1)c1ccccn1
  EC50: inactive

## O=C(Oc1c(Cl)cc(Cl)c2cccnc12)c1cccc([N+](=O)[O-])c1
  EC50: inactive

## Cc1ccc(S(=O)(=O)c2ncccc2[N+](=O)[O-])cc1
  EC50: inactive

## O=C(Nc1nc(-c2ccccn2)cs1)C1COc2ccccc2O1 (stereo unspecified)
  EC50: inactive

## CSC1=NS(=O)(=O)c2c(C)nn(C)c2S1
  EC50: inactive

## Cc1cc(C(=O)Nc2nc(-c3ccccn3)cs2)ccc1[N+](=O)[O-]
  EC50: inactive

## CNc1nc(N)c([N+](=O)[O-])c(NCC2CCCO2)n1 (stereo unspecified)
  EC50: inactive

## Cc1ccc(C(c2cc(Cl)c3cccnc3c2O)N2CCN(C)CC2)cc1 (stereo unspecified)
  EC50: inactive
